This assay deals with T1, human mGlu5a receptor (Homo sapiens, UniProt P41594).
T1 construct: expressed in transfected cells; host or cells: EBNA cells (transient transfection); cell membrane homogenates
T1 sequence (P41594 21-1180 isoform P41594-2 limits assumed): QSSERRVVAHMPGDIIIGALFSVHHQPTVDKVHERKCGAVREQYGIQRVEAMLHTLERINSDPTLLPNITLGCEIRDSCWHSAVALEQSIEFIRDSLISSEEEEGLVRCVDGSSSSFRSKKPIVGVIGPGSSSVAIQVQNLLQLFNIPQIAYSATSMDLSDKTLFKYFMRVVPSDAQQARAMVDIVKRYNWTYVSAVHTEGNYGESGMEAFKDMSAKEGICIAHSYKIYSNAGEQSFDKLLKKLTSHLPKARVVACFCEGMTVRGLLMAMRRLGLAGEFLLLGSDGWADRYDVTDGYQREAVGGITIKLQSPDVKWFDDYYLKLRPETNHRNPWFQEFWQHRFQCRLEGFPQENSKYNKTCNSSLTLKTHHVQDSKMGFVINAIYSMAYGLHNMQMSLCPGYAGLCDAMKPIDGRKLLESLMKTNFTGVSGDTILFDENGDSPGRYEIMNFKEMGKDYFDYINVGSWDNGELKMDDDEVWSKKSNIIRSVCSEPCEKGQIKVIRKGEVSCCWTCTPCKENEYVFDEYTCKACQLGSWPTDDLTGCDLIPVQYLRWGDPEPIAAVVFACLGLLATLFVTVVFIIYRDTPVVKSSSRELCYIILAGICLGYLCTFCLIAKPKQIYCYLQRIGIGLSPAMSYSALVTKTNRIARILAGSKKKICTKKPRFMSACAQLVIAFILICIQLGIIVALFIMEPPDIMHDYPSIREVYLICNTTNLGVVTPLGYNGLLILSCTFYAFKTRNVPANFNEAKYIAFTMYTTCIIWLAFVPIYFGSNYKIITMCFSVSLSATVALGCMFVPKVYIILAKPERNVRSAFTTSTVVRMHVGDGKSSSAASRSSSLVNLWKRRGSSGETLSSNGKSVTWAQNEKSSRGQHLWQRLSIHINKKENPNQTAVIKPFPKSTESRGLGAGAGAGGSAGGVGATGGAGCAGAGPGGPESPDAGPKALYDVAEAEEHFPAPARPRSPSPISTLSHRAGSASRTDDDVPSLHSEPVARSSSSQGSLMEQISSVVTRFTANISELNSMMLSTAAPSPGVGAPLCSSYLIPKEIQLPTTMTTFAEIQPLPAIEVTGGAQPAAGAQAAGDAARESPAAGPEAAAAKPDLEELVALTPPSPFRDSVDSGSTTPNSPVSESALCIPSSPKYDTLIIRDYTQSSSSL
Nature of the assay: [3H]MPEP competition binding on membranes of EBNA cells transfected with human mGlu5a receptor. The protocol: For binding experiments, cDNA encoding human mGlu5a receptor was transiently transfected into EBNA cells using a procedure described by Schlaeger and Christensen [Cytotechnology 15:1-13 (1998)]. Cell membrane homogenates were stored at −80° C. until the day of assay where upon they were thawed and resuspended and polytronised in 15 mM Tris-HCl, 120 mM NaCl, 100 mM KCl, 25 mM CaCl2, 25 mM MgCl2 binding buffer at pH 7.4 to a final assay concentration of 20 μg protein/ well.
Saturation isotherms were determined by addition of twelve [^3H]MPEP concentrations (0.04-100 nM) to these membranes (in a total volume of 200 μl) for 1 h at 4° C. Competition experiments were performed with a fixed concentration of [^3H]MPEP (2 nM) and IC50 values of test compounds evaluated using 11 concentrations (0.3-10,000 nM). Incubations were performed for 1 h at 4° C.
At the end of the incubation, membranes were filtered onto unifilter (96-well white microplate with bonded GF/C filter preincubated 1 h in 0.1% PEI in wash buffer, Packard BioScience, Meriden, Conn.) with a Filtermate 96 harvester (Packard BioScience) and washed 3 times with cold 50 mM Tris-HCl, pH 7.4 buffer. Nonspecific binding was measured in the presence of 10 μM MPEP. The radioactivity on the filter was counted (3 min) on a Packard Top-count microplate scintillation counter with quenching correction after addition of 45 μl of microscint 40 (Canberra Packard S.A., Zürich, Switzerland) and shaking for 20 min.
The Ki value is defined by the following formula: Ki=IC50/[1+L/Kd] in which the IC50 values are those concentrations of the compounds tested which cause 50% inhibition of the competing radioligand ([^3H]MPEP). L is the concentration of radioligand used in the binding experiment and the Kd value of the radioligand is empirically determined for each batch of membranes prepared.
Consider `COc1ccc(-n2cc(C#Cc3ccnc(Cl)c3)nc2C)cc1` [Example 22, 2-Chloro-4-[1-(4-methoxy-phenyl)-2-methyl-1H-imidazol-4-ylethynyl]-pyridine], for which the Ki turned out to be 26 nM.

Regarding `Cc1ccc(-n2cc(C#Cc3ccnc(Cl)c3)nc2C)nc1` [Example 30, 2-[4-(2-Chloro-pyridin-4-ylethynyl)-2-methyl-imidazol-1-yl]-5-methyl-pyridine], the Ki came out at 36 nM.

`Cc1nc(C#Cc2ccnc(Cl)c2)cn1-c1ccc(Cl)c(Cl)c1` [Example 8, 2-Chloro-4-[1-(3,4-dichloro-phenyl)-2-methyl-1H-imidazol-4-ylethynyl]-pyridine]: the Ki was 24 nM.

As for `Cc1ccc(-n2cc(C#Cc3ccnc(Cl)c3)nc2C)cc1` [Example 20, 2-Chloro-4-[1-(4-methyl-phenyl)-2-methyl-1H-imidazol-4-ylethynyl]-pyridine], the Ki amounted to 15 nM.

In the case of `Cc1nc(C#Cc2ccnc(Cl)c2)cn1-c1cccc(C(F)(F)F)n1` [Example 5, 2-[4-(2-Chloro-pyridin-4-ylethynyl)-2-methyl-imidazol-1-yl]-6-trifluoromethyl-pyridine], the Ki stood at 21 nM.

Consider `Cc1nc(C#Cc2ccnc(C#N)c2)cn1-c1ccc(F)cc1` [Example 10, 4-[1-(4-Fluoro-phenyl)-2-methyl-1H-imidazol-4-ylethynyl]-pyridine-2-carbonitrile], for which the Ki amounted to 44 nM.

As to `Cc1ccnc(-n2cc(C#Cc3ccnc(Cl)c3)nc2C)n1` [Example 25, 2-[4-(2-Chloro-pyridin-4-ylethynyl)-2-methyl-imidazol-1-yl]-4-methyl-pyrimidine], the Ki turned out to be 40 nM.

With `Cc1nc(C#Cc2ccnc(Cl)c2)cn1-c1ccnc(C(F)(F)F)n1` [Example 28, 4-[4-(2-Chloro-pyridin-4-ylethynyl)-2-methyl-imidazol-1-yl]-2-trifluoromethyl-pyrimidine], the Ki was 23 nM.

For `Cc1nc(C#Cc2ccnc(Cl)c2)cn1-c1cncc(F)c1` [Example 6, 3-[4-(2-Chloro-pyridin-4-ylethynyl)-2-methyl-imidazol-1-yl]-5-fluoro-pyridine], the Ki stood at 63 nM.

Regarding `Cc1nc(C#Cc2ccnc(F)c2)cn1-c1ccc(F)cc1` [Example 2, 2-Fluoro-4-[1-(4-fluoro-phenyl)-2-methyl-1H-imidazol-4-ylethynyl]-pyridine], the Ki was found to be 23 nM.

`Cc1nc(C#Cc2ccnc(Cl)c2)cn1-c1ccc(C2CC2)nc1` [Example 33, 5-[4-(2-Chloro-pyridin-4-ylethynyl)-2-methyl-imidazol-1-yl]-2-cyclopropyl-pyridine]: the Ki was 24 nM.

Regarding `Cc1cc(-n2cc(C#Cc3ccnc(Cl)c3)nc2C)ccc1F` [Example 18, 2-Chloro-4-[1-(4-fluoro-3-methyl-phenyl)-2-methyl-1H-imidazol-4-ylethynyl]-pyridine], the Ki came out at 25 nM.

As to `COc1ccnc(-n2cc(C#Cc3ccnc(Cl)c3)nc2C)n1` [Example 26, 2-[4-(2-Chloro-pyridin-4-ylethynyl)-2-methyl-imidazol-1-yl]-4-methoxy-pyrimidine], the inhibition constant (Ki) was 12 nM.

Turning to `Cc1nc(C#Cc2ccnc(C#N)c2)cn1-c1ccc(Cl)nc1` [Example 31, 4-[1-(6-Chloro-pyridin-3-yl)-2-methyl-1H-imidazol-4-ylethynyl]-pyridine-2-carbonitrile], the Ki was 69 nM.

Usually Ki stands for the dissociation constant of the complex between target and ligand, obtained from inhibition or displacement.

Values taken from US7531529B2, “Imidazole derivatives” (Roche Palo Alto LLC, priority 2003, dated 2009).
